Activity calls are given as the source filed them. The calls are words filed in the database; no cut-off is given here.
Key:
MDA-MB-231 [1] = experiment: Antimetastatic activity against human MDA-MB-231 cells […] assessed as downregulation of MMP-9 at 30 uM incubated for 2 to 12 hrs by western blot analysis; format: functional, cell-based; conditions: time 2-12 hrs
MDA-MB-231 [2] = experiment: Antimetastatic activity against human MDA-MB-231 cells xenografted in BALB/c mouse assessed as decrease in plasma S1P levels at 50 mg/kg, ip for 28 days; format: functional, organism-based; conditions: time 28.0 day
HT-29 [3] = experiment: Induction of cell cycle arrest in human HT-29 cells assessed as accumulation at G0/G1 phase at 10 uM incubated for 24 hrs by PI staining based flow cytometry; format: functional
HT-29 [4] = experiment: Induction of cell cycle arrest in human HT-29 cells assessed as accumulation at G0/G1 phase at 30 uM incubated for 24 hrs by PI staining based flow cytometry; format: functional
HT-29 [5] = experiment: Induction of cell cycle arrest at G1 phase in human HT-29 cells assessed as increase in P21 expression at 30 uM incubated for 24 hrs by Western blot analysis; format: functional, cell-based
HT-29 [6] = experiment: Induction of cell cycle arrest at G0/G1 phase in human HT-29 cells assessed as decrease in p-Rb expression at 10 to 30 uM incubated for 24 hrs by Western blot analysis; format: functional, cell-based; conditions: dose 10-30 µM
HT-29 [7] = experiment: Induction of cell cycle arrest at G0/G1 phase in human HT-29 cells assessed as reduction in cyclinA expression at 10 to 30 uM incubated for 24 hrs by Western blot analysis; format: functional, cell-based; conditions: dose 10-30 µM
HT-29 [8] = experiment: Induction of cell cycle arrest at G0/G1 phase in human HT-29 cells assessed as reduction in cyclinE1 expression at 10 to 30 uM incubated for 24 hrs by Western blot analysis; format: functional, cell-based; conditions: dose 10-30 µM
HT-29 [9] = experiment: Induction of cell cycle arrest at G0/G1 phase in human HT-29 cells assessed as reduction in cyclinD1 expression at 10 to 30 uM incubated for 24 hrs by Western blot analysis; format: functional, cell-based; conditions: dose 10-30 µM
HT-29 [10] = experiment: Induction of cell cycle arrest at G0/G1 phase in human HT-29 cells assessed as reduction in CDK6 expression at 10 to 30 uM incubated for 24 hrs by Western blot analysis; format: functional, cell-based; conditions: dose 10-30 µM
MDA-MB-231 [11] = experiment: Induction of apoptosis in human MDA-MB-231 cells assessed as early apoptotic cells at 10 uM incubated for 48 hrs by Annexin V-FITC/PI staining based flow cytometry (reference value: 2.35 %); format: functional
HT-29 [12] = experiment: Induction of apoptosis in human HT-29 cells at 30 uM incubated for 48 hrs by Annexin V-FITC/PI staining based flow cytometry relative to control; format: functional
HT-29 [13] = experiment: Induction of apoptosis in human HT-29 cells assessed as increase in PARP cleavage at 30 uM measured after 48 hrs by western blot analysis; format: functional, cell-based
HT-29 [14] = experiment: Induction of apoptosis in human HT-29 cells assessed as increase in caspase 3 cleavage at 30 uM measured after 48 hrs by western blot analysis; format: functional, cell-based
HT-29 [15] = experiment: Induction of apoptosis in human HT-29 cells assessed as increase in caspase 8 cleavage at 30 uM measured after 48 hrs by western blot analysis; format: functional, cell-based
MDA-MB-231 [16] = experiment: Induction of cell cycle arrest at G0/G1 phase in human MDA-MB-231 cells at 20 uM incubated for 24 hrs by PI staining based flow cytometry; format: functional
MDA-MB-231 [17] = experiment: Induction of apoptosis in human MDA-MB-231 cells assessed as viable cells at 10 uM incubated for 48 hrs by Annexin V-FITC/PI staining based flow cytometry (reference value: 94.3 %); format: functional; conditions: read-out: Activity
MDA-MB-231 [18] = experiment: Induction of apoptosis in human MDA-MB-231 cells assessed as viable cells at 30 uM incubated for 48 hrs by Annexin V-FITC/PI staining based flow cytometry (reference value: 94.3 %); format: functional; conditions: read-out: Activity
MDA-MB-231 [19] = experiment: Antimigratory activity against human MDA-MB-231 cells assessed as reduction in cell migration at 20 uM incubated for 8 hrs by crystal violet staining microscopy based transwell migration assay; format: functional
[20] = Tmax in mouse at 50 mg/kg, po; format: ADME, organism-based; conditions: in vivo
[21] = Tmax in mouse at 50 mg/kg, ip; format: ADME, organism-based; conditions: in vivo
[22] = Cmax in mouse at 50 mg/kg, po; format: ADME, organism-based; set-up: dose 50 mg/kg, route po; conditions: in vivo
[23] = Cmax in mouse at 50 mg/kg, ip; format: ADME, organism-based; set-up: dose 50 mg/kg, route ip; conditions: in vivo
[24] = AUClast in mouse at 2 mg/kg, iv; format: ADME, organism-based; set-up: time 0 - last, dose 2 mg/kg, route iv; conditions: in vivo
[25] = AUClast in mouse at 50 mg/kg, po; format: ADME, organism-based; set-up: time 0 - last, dose 50 mg/kg, route po; conditions: in vivo
[26] = AUClast in mouse at 50 mg/kg, ip; format: ADME, organism-based; set-up: time 0 - last, dose 50 mg/kg, route ip; conditions: in vivo
[27] = Half life in mouse at 2 mg/kg, iv; format: ADME, organism-based; conditions: in vivo
[28] = Half life in mouse at 50 mg/kg, po; format: ADME, organism-based; conditions: in vivo
[29] = Half life in mouse at 50 mg/kg, ip; format: ADME, organism-based; conditions: in vivo
[30] = Clearance in mouse at 2 mg/kg, iv; format: ADME, organism-based; conditions: in vivo
[31] = Oral bioavailability in mouse at 50 mg/kg; format: ADME, organism-based; conditions: in vivo
[32] = Bioavailability in mouse at 50 mg/kg, ip; format: ADME, organism-based; conditions: in vivo
HT-29 [33] = experiment: Antitumor activity against human HT-29 cells xenografted in BALB/c mouse assessed as tumor growth inhibition at 50 mg/kg/day, ip for 3 weeks and measured every 3 days by caliper method; format: functional, organism-based
[34] = Toxicity in BALB/c mouse xenografted with human HT-29 cells assessed as change in body weight at 50 mg/kg/day, ip for 3 weeks and measured every 3 days; format: organism-based; conditions: in vivo, 504 h
MDA-MB-231 [35] = experiment: Antitumor activity against human MDA-MB-231 cells xenografted in BALB/c mouse assessed as tumor growth inhibition at 100 mg/kg/day, ip for 3 weeks and measured every 3 days by caliper method; format: functional, organism-based
MDA-MB-231 [36] = experiment: Antitumor activity against human MDA-MB-231 cells xenografted in BALB/c mouse assessed as inhibition in lung metastasis at 75 mg/kg, ip treated for 28 days by H and E staining based assay; format: functional, organism-based; conditions: time 28.0 day
[37] = Toxicity in BALB/c mouse xenografted with human MDA-MB-231 cells assessed as body weight change at 50 to 75 mg/kg, ip administrated for 28 days; format: organism-based; conditions: in vivo, 672 h, dose 50-75 mg/kg, time 28 day
MDA-MB-231 [38] = experiment: Antimetastatic activity against human MDA-MB-231 cells […] assessed as inhibition of NF-kappaB p65 phosphorylation at 30 uM incubated for 2 to 12 hrs by Western blot analysis; format: functional, cell-based; conditions: time 2-12 hrs
MDA-MB-231 [39] = experiment: Antimetastatic activity against human MDA-MB-231 cells […] assessed as inhibition of FSCN1 phosphorylation at 30 uM incubated for 2 to 12 hrs by western blot analysis; format: functional, cell-based; conditions: time 2-12 hrs
MDA-MB-231 [40] = experiment: Antimetastatic activity against human MDA-MB-231 cells […] assessed as upregulation of phosphorylated beta-catenin at 30 uM incubated for 2 to 12 hrs by western blot analysis; format: functional, cell-based; conditions: time 2-12 hrs
MDA-MB-231 [41] = experiment: Antimetastatic activity against human MDA-MB-231 cells xenografted in BALB/c mouse assessed as decrease in plasma S1P levels at 75 mg/kg, ip for 28 days; format: functional, organism-based; conditions: time 28.0 day
MDA-MB-231 [42] = experiment: Induction of apoptosis in human MDA-MB-231 cells assessed as necrotic cells at 10 uM incubated for 48 hrs by Annexin V-FITC/PI staining based flow cytometry (reference value: 1.42 %); format: functional
MDA-MB-231 [43] = experiment: Induction of apoptosis in human MDA-MB-231 cells assessed as late apoptotic cells at 10 uM incubated for 48 hrs by Annexin V-FITC/PI staining based flow cytometry (reference value: 1.96 %); format: functional
MDA-MB-231 [44] = experiment: Induction of apoptosis in human MDA-MB-231 cells assessed as early apoptotic cells at 30 uM incubated for 48 hrs by Annexin V-FITC/PI staining based flow cytometry (reference value: 2.35 %); format: functional
MDA-MB-231 [45] = experiment: Induction of apoptosis in human MDA-MB-231 cells assessed as late apoptotic cells at 30 uM incubated for 48 hrs by Annexin V-FITC/PI staining based flow cytometry (reference value: 1.96 %); format: functional
MDA-MB-231 [46] = experiment: Induction of apoptosis in human MDA-MB-231 cells assessed as necrotic cells at 30 uM incubated for 48 hrs by Annexin V-FITC/PI staining based flow cytometry (reference value: 1.42 %); format: functional
MDA-MB-231 [47] = experiment: Antimigratory activity against human MDA-MB-231 cells assessed as inhibition of cell migration in human MDA-MB-231 cells at 20 uM incubated for 15 hrs by wound healing assay; format: functional, cell-based
CAL-51 = experiment: Antimigratory activity against human CAL-51 cells assessed as inhibition in cell migration at 30 uM incubated for 16 hrs by crystal violet staining microscopy based transwell migration assay; format: functional

Tmax [20]: 0.83 h
Tmax [21]: 0.18 h
Cmax [22]: 171 ng/mL
Cmax [23]: 7860 ng/mL
AUC(0-t) [24]: 408 ng·h/mL
AUC(0-t) [25]: 242 ng·h/mL
AUC(0-t) [26]: 8060 ng·h/mL
half-life [27]: 2.23 h
half-life [28]: 8.13 h
half-life [29]: 4.2 h
clearance [30]: 81.1 mL/min/kg
bioavailability [31]: 2.38%
bioavailability [32]: 79%
Structure (SMILES): Cc1cc(OCc2ccc(CN3CCC[C@@H]3CO)cc2)cc(CS(=O)(=O)c2ccccc2)c1Br
Activity (MDA-MB-231 [1]): Active
Activity (MDA-MB-231 [2]): Active
Activity (HT-29 [3]): Active
Activity (HT-29 [4]): Active
Activity (HT-29 [5]): Active
Activity (HT-29 [6]): Active
Activity (HT-29 [7]): Active
Activity (HT-29 [8]): Active
Activity (HT-29 [9]): Active
Activity (HT-29 [10]): Active
Activity (MDA-MB-231 [11]): 3.67%
Activity (HT-29 [12]): 50%
Activity (HT-29 [13]): Active
Activity (HT-29 [14]): Active
Activity (HT-29 [15]): Active
Activity (MDA-MB-231 [16]): Active
viability at 10 µM (MDA-MB-231 [17]): 65.4%
viability at 30 µM (MDA-MB-231 [18]): 36.4%
Activity (MDA-MB-231 [19]): Active
Activity (HT-29 [33]): Active
Activity [34]: Non-Toxic
Activity (MDA-MB-231 [35]): Active
Activity (MDA-MB-231 [36]): Active
Activity [37]: Non-Toxic
Activity (MDA-MB-231 [38]): Active
Activity (MDA-MB-231 [39]): Active
Activity (MDA-MB-231 [40]): Active
Activity (MDA-MB-231 [41]): Active
Activity (MDA-MB-231 [42]): 3.69%
Activity (MDA-MB-231 [43]): 9.16%
Activity (MDA-MB-231 [44]): 32.2%
Activity (MDA-MB-231 [45]): 24.5%
Activity (MDA-MB-231 [46]): 6.82%
Activity (MDA-MB-231 [47]): Active
Activity (CAL-51): Active
